Results: patent US4044043A, “Derivatives of 9-oxo-13-trans-prostenoic acid esters” (American Cyanamid Company, priority 1975, dated 1977)
≈ marks a conversion by molar mass, not a printed value. Where two headings read alike, the source gives them in different places.

Columns and labels:
[1] = test system: gastric acid secretion; assay: Inhibition of basal Gastric Acid Secretion (Acute Gastric Fistula Rat); type: in vivo, Female Sprague-Dawley rats; conditions: 2 h, 10 mg./kg. intraduodenal, B: 120 minute collection
Experimental: Inhibition of basal gastric acid secretion was determined in the acute gastric fistula rat as follows. Female Sprague-Dawley rats (Charles River Laboratories) weighing 140-160 grams are fasted in individual cages for 18-24 hours. The rats are then lightly anesthetized with ether and their front teeth extracted to avoid destruction of the plastic cannula. A midline incision is then made and the stomach and duodenum exposed. A flanged polyvinyl tube is inserted into the fundic portion of the stomach and secured with a purse string suture line using 4-0 Mersilene. The rat is then dosed by injection of the compound into the duodenum (1.0 ml. per 100 gram body weight). After dosing, the abdominal wall and skin are closed using metal wound clips. The rat is replaced in a cage containing a longitudinal slit to allow the polyvinyl tube to hang freely. An 8 ml. plastic collecting tube is attached to the flanged cannula and hangs freely below the cage. The first 30 minute sample is discarded designating this time as zero. The collecting tube is attached again and samples removed at the end of 60 and 120 minutes. Those samples are referred to as "A" and "B" in the table. The hourly samples are then transferred to a 15 ml. centrifuge tube and centrifuged for 5-10 minutes. Total and sediment volume are then recorded with the supernatant volume being used as volume of secretion. A 1 ml. or less aliquot is then removed and placed in a 50 ml. beaker containing 10 ml. of distilled water. This sample is then titrated using 0.01N NaOH to pH 7.0 using a Beckman zeromatic pH meter. Volume, titratable acidity (meq/L) and total acid output (μ eq/hour) are recorded. Percent inhibition is determined by comparison with the appropriate control. Groups of three rats were used. All compounds are administered in vehicle (0.5% methocel, 0.4% Tween 80, saline) at a constant volume of 1 ml./100 gram rat. Samples were sonicated with care to prevent overheating.

[2] = test system: Trichophyton tonsurans NIH 662; assay: agar-dilution streak-plate antimicrobial assay; type: cell-based; conditions: NIH662, read-out: Minimal inhibitory conc. (3)
In short: (§1)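 Test solutions at 2.5 mg/ml were two-fold serially diluted, and 1 ml of each was mixed into 9 ml warm nutrient agar, with bacterial and fungal media kept separate. Overnight broth cultures or saline spore suspensions were streaked by loop. MIC was the lowest concentration (µg/ml) giving complete visible growth inhibition.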

[3] = test system: Microsporum canis ATCC 10214; assay: agar-dilution streak-plate antimicrobial assay; type: cell-based; conditions: ATCC10214, read-out: Minimal inhibitory conc. (1)
In short: as §1

[4] = test system: Trichophyton rubrum E 97; assay: agar-dilution streak-plate antimicrobial assay; type: cell-based; conditions: E97, read-out: Minimal inhibitory conc. (5)
In short: as §1

[5] = test system: Microsporum gypseum ATCC 14683; assay: agar-dilution streak-plate antimicrobial assay; type: cell-based; conditions: Nannizzia gypsea, ATCC14683, read-out: Minimal inhibitory conc. (2)
In short: as §1

[6] = test system: Trichophyton mentagrophytes E 11; assay: agar-dilution streak-plate antimicrobial assay; type: cell-based; conditions: E11, read-out: Minimal inhibitory conc. (4)
In short: as §1

[7] = test system: diastolic blood pressure; assay: Prostaglandin-like hypotensive activity in anesthetized rats (minimal dose for about 10 mm. decrease in diastolic blood pressure); type: in vivo, Male Wistar strain rats; conditions: Rattus norvegicus; intravenous; decrease of about 10 mm. in diastolic blood pressure
In short: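 Male Wistar rats (~250 g), pentobarbital 30 mg./kg. i.v. and hexamethonium 2 mg./kg. i.v., iliac artery cannulated for blood pressure. Compounds in saline-Tween 80 given i.v. at 0.1–10.0 mg./kg.; value is the minimal dose giving ~10 mm. drop in diastolic pressure.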

[8] = test system: Streptococcus pyogenes C 203; assay: agar-dilution streak-plate antimicrobial assay; type: cell-based; conditions: C203, read-out: Minimal inhibitory conc. (8)
In short: as §1

[9] = test system: Staphylococcus aureus Rose ATCC 14154; assay: agar-dilution streak-plate antimicrobial assay; type: cell-based; conditions: ATCC14154, read-out: Minimal inhibitory conc. (7)
In short: as §1

[10] = test system: Mycobacterium smegmatis ATCC 606; assay: agar-dilution streak-plate antimicrobial assay; type: cell-based; conditions: Mycolicibacterium smegmatis, ATCC606, read-out: Minimal inhibitory conc. (6)
In short: as §1

[11] = test system: dl-PGE1-induced contraction of gerbil colon; assay: Inhibition of dl-PGE1-Induced Contraction of Gerbil Colon (prostaglandin antagonist action); type: cell-based, gerbils (Meriones unguiculatus); conditions: Meriones unguiculatus, 1 min; sub-maximal challenge, 20 ng./ml. dl-PGE1; 50% inhibition of maximum response; read-out: ID50 vs. 20 ng. of PGE1/ml.
In short: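 Ascending colon from male gerbils, held in De Jalon's solution at 37 °C under 95% O2/5% CO2 with 0.5 g resting tension, contraction recorded isometrically. 1 min compound exposure, then 1 min dl-PGE1 at 200 ng/ml (maximal) or 20 ng/ml (sub-maximal). Approximate ID50 taken from a concentration series against the preceding agonist-only cycle.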

[12] = test system: bronchospasms elicited by histamine; assay: Bronchodilator Activity (Konzett Assay) against histamine; type: in vivo, guinea pigs; conditions: Cavia porcellus; three logarithmic cumulative intravenous doses
In short: (§2)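 Guinea pigs given intravenous spasmogen (5-hydroxytryptamine, histamine or acetylcholine) per Konzett procedure. ED50 derived from three logarithmic cumulative intravenous doses of test compound.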

[13] = test system: bronchospasms elicited by acetylcholine; assay: Bronchodilator Activity (Konzett Assay) against acetylcholine; type: in vivo, guinea pigs; conditions: Cavia porcellus; three logarithmic cumulative intravenous doses
In short: as §2

[14] = test system: bronchospasms elicited by 5-hydroxytryptamine; assay: Bronchodilator Activity (Konzett Assay) against 5-hydroxytryptamine; type: in vivo, guinea pigs; conditions: Cavia porcellus; three logarithmic cumulative intravenous doses
In short: as §2

Row | MIC [2] [mg/L] | MIC [3] [mg/L] | MIC [4] [mg/L] | MIC [5] [mg/L] | MIC [6] [mg/L] | MIC [8] [mg/L] | MIC [9] [mg/L] | MIC [10] [mg/L] | IC50 [11] [mg/L] | SMILES | inhibition in vivo at 10 mg/kg ([1]; read-out: % Inhibition Total Acid Output) [%] | inhibition in vivo at 10 mg/kg ([1]; read-out: % Inhibition Total Acidity) [%] | minimal effective dose [7] [mg/kg] | ED50 [12] [mg/kg] | ED50 [13] [mg/kg] | ED50 [14] [mg/kg]
1 | 125 (≈ 495 µM) | 250 (≈ 991 µM) | 250 (≈ 991 µM) | 250 (≈ 991 µM) | 250 (≈ 991 µM) | – | – | – | – | CCCCCC/C=C/[C@@H]1CCC(=O)[C@H]1CC(=O)O (relative stereo) [9-oxo-3,4,5,6,7-pentanor-13-trans-prostenoic acid] | 64 | 48 | 2 | – | – | –
2 | 250 (≈ 849 µM) | 250 (≈ 849 µM) | 250 (≈ 849 µM) | 250 (≈ 849 µM) | 250 (≈ 849 µM) | 250 (≈ 849 µM) | 250 (≈ 849 µM) | 250 (≈ 849 µM) | 10 to 20 (≈ 34 to 67.9 µM) | CCCCCC/C=C/[C@H]1CCC(=O)[C@@H]1CCCCC(=O)O (relative stereo) [9-oxo-6,7-dinor-13-trans-prostenoic acid] | – | – | 2 | – | – | –
3 | 125 (≈ 367 µM) | – | – | 250 (≈ 734 µM) | 125 (≈ 367 µM) | – | – | 250 (≈ 734 µM) | 1 (≈ 2.94 µM) | CCSCCC/C=C/[C@@H]1CCC(=O)[C@H]1CCCCCCC(=O)O (relative stereo) [9-oxo-18-thia-13-trans-prostenoic acid] | – | – | 0.2 | 1.38 | > 10 | 1.99
4 | 250 (≈ 705 µM) | – | – | 125 (≈ 353 µM) | 250 (≈ 705 µM) | 6 (≈ 16.9 µM) | – | 125 (≈ 353 µM) | – | O=C(O)CCCCCC[C@H]1C(=O)CC[C@@H]1/C=C/CCCCCCS (relative stereo) [20-mercapto-9-oxo-13-trans-prostenoic acid] | – | – | – | – | – | –
5 | 250 (≈ 810 µM) | 250 (≈ 810 µM) | 250 (≈ 810 µM) | 250 (≈ 810 µM) | 250 (≈ 810 µM) | – | – | 62 (≈ 201 µM) | – | CCOC(=O)CCCCCC[C@H]1C(=O)CC[C@@H]1/C=C/C(C)C (relative stereo) [ethyl 15-methyl-9-oxo-17,18,19,20-tetranor-13-trans-prostenoate] | – | – | – | – | – | –
6 | 250 (≈ 649 µM) | – | 250 (≈ 649 µM) | – | 250 (≈ 649 µM) | – | – | 250 (≈ 649 µM) | – | CCOC(=O)CCCCCC[C@H]1C(=O)CC[C@@H]1/C=C/CCCCCCCl (relative stereo) [ethyl 20-chloro-9-oxo-13-trans-prostenoate] | – | – | 0.5 | – | – | –
7 | 250 (≈ 635 µM) | 250 (≈ 635 µM) | – | – | – | 10 (≈ 25.4 µM) | 50 (≈ 127 µM) | 10 (≈ 25.4 µM) | – | CCCCCC/C=C/[C@@H]1CCC(=O)[C@H]1CCCCCCC(=O)OCCN(C)C (relative stereo) [β-dimethylaminoethyl 9-oxo-13-trans-prostenoate] | – | – | 0.5 to 2 | – | – | –
8 | 62 (≈ 209 µM) | 250 (≈ 843 µM) | 250 (≈ 843 µM) | 62 (≈ 209 µM) | 62 (≈ 209 µM) | 62 (≈ 209 µM) | 250 (≈ 843 µM) | 62 (≈ 209 µM) | 10 to 12 (≈ 33.7 to 40.5 µM) | CCCCCCC=CC1CCC(O)C1CCCCC(=O)O (stereo not drawn) [9-hydroxy-6,7-dinor-13-trans-prostenoic acid] | – | – | 2 | 6.06 | > 10 | > 10
9 | 50 (≈ 154 µM) | 50 (≈ 154 µM) | – | 25 (≈ 77 µM) | 50 (≈ 154 µM) | 25 (≈ 77 µM) | 50 (≈ 154 µM) | 25 (≈ 77 µM) | – | CCCCCC/C=C/[C@H]1CCC(O)[C@@H]1CCCCCCC(=O)O (stereo partly drawn) [9-hydroxy-13-trans-prostenoic acid, 9α- and 9β-hydroxy-13-trans-prostenoic acid] | – | – | 2 | – | – | –
10 | 62 (≈ 200 µM) | – | 250 (≈ 805 µM) | 62 (≈ 200 µM) | 62 (≈ 200 µM) | 25 (≈ 80.5 µM) | 125 (≈ 403 µM) | 62 (≈ 200 µM) | 5 to 10 (≈ 16.1 to 32.2 µM) | CC(C)CCC=CC1CCC(O)C1CCCCCCC(=O)O (stereo not drawn) [9-hydroxy-17-methyl-18,19-dinor-13-trans-prostenoic acid] | – | – | 0.2 to 2 | – | – | –
11 | 250 (≈ 789 µM) | – | – | 250 (≈ 789 µM) | 250 (≈ 789 µM) | 62 (≈ 196 µM) | – | – | – | O=C(O)CCCCCCC1C(O)CCC1C=CCCCCl (stereo not drawn) [9-hydroxy-20-chloro-17,18,19-trinor-13-trans-prostenoic acid] | – | – | 2 | > 10 | > 10 | 17.9
12 | 250 (≈ 650 µM) | – | 250 (≈ 650 µM) | – | 250 (≈ 650 µM) | – | – | 250 (≈ 650 µM) | – | CCOC(=O)CCCCCC[C@H]1C(=O)CC[C@@H]1/C=C/CCC[S+]([O-])CC (stereo partly drawn) [ethyl 9-oxo-18-oxythia-13-trans-prostenoate] | – | – | 2 | – | – | –
